Reference: patent US8828696B2, “Use of Penicillin G Procaine as a selective antimicrobial agent in the production of alcohol by fermentation” (Lallemand Specialites, Inc, priority 2008, dated 2014)

What was measured:
Lactobacillus fermentum = experiment: Bacterial inhibition test; type: cell-based; set-up: key: successful test corresponding to no growth is represented as (=); barely discernable growth is represented as (±); easily noticeable bacterial growth is represented as (+)
From the text: (§1) To directly measure the efficacy of Penicillin G Procaine and Penicillin G Potassium a bacterial inhibition test was designed using industrial isolates and chosen ATCC strains. The inhibition testing was spread over 0.1 ppm to 5.0 ppm for the Lactobacillus fermentum and 1.0 ppm to 5.0 ppm for Lactobacillus brevis species of bacteria due to the lack of response of Lactobacillus brevis at lower concentrations. […] The strains used were two isolates of Lactobacillus fermentum and 2 isolates of Lactobacillus brevis. The Lactobacillus fermentum series contained both an industry derived isolate Ind 1 and an ATCC strain while the Lactobacillus brevis series comprised of two isolates, Ind 1 and Ind 43 derived from the ethanol plants. The inhibition test plates were set in triplicate and read at 12 hour intervals up to 48 hours of test endpoint. The results below represent the mode average of the outcome from the triplicate inhibitory test sets for each trial. Table 11 lists the Lactobacillus fermentum and the Lactobacillus brevis results of the inhibition testing as follows: successful test corresponding to no growth is represented as (=), barely discernable growth is represented as (±) and easily noticeable bacterial growth is represented as (+). The set of control tests depict (=) control as just broth and (+) control as just broth with bacteria but without any antibiotic.
(§2) The trial was set up as follows:
(§3) • 1. Weigh out 0.1 g of each sample to be tested into a 15 ml centrifuge tube. • 2. Dissolve sample into 10 ml sterile water. […] Add antibiotic to clean tube, add 2 ml water. • b. Vortex, if antibiotic goes into solution add water for final volume of 10 ml. • c. […] Vortex until all material is in solution. • 3. Vortex the solutions to make sure that they are well mixed. • 4. Filter the solutions through a 0.2 μm syringe filter into a second labeled sterile centrifuge tube. • 5. Add antibiotic solution to MRS Broth for a final volume of 10 ml at the test concentration for each antibiotic. • 6. Mix organism solutions and add 2 μl to each of 3 wells of a 24 well plate. If tubes are used add the 2 μl to each of three tubes for each antibiotic. • 7. Transfer 1 ml of the antibiotic-broth solution to each well containing bacteria. • 8. Recap remaining antibiotic solution and return the tube to the tube rack. This tube will become the negative control for each dilution created. • 9. Add four μl of each bacterial culture to another set of wells and add […] of broth without antibiotics. These wells will be the positive controls. • 10. Incubate plates and tubes at 33 C for 48 hours, examining all samples at 24 hours for growth. Any turbidity detected should be a result of bacterial growth.

Lactobacillus brevis = experiment: Bacterial inhibition test; type: cell-based; set-up: key to bacterial growth in inhibition test: successful test corresponding to no growth is represented as (=); barely discernable growth is represented as (±); easily noticeable bacterial growth is represented as (+)
From the text: as §1, §2, §3

SMILES: CC1(C)S[C@@H]2[C@H](NC(=O)Cc3ccccc3)C(=O)N2[C@H]1C(=O)O.CCN(CC)CCOC(=O)c1ccc(N)cc1 [Penicillin G Procaine]
- bacterial growth in inhibition test (Lactobacillus fermentum; ATCC L. fermentum, 0.1 ppm, Inc Time 12): =
- bacterial growth in inhibition test (Lactobacillus fermentum; ATCC L. fermentum, 0.1 ppm, Inc Time 24): =
- bacterial growth in inhibition test (Lactobacillus fermentum; ATCC L. fermentum, 0.1 ppm, Inc Time 36): =
- bacterial growth in inhibition test (Lactobacillus fermentum; ATCC L. fermentum, 0.1 ppm, Inc Time 48): ±
- bacterial growth in inhibition test (Lactobacillus fermentum; ATCC L. fermentum, 0.3 ppm, Inc Time 12): =
- bacterial growth in inhibition test (Lactobacillus fermentum; ATCC L. fermentum, 0.3 ppm, Inc Time 24): =
- bacterial growth in inhibition test (Lactobacillus fermentum; ATCC L. fermentum, 0.3 ppm, Inc Time 36): =
- bacterial growth in inhibition test (Lactobacillus fermentum; ATCC L. fermentum, 0.3 ppm, Inc Time 48): =
- bacterial growth in inhibition test (Lactobacillus fermentum; ATCC L. fermentum, 0.5 ppm, Inc Time 12): =
- bacterial growth in inhibition test (Lactobacillus fermentum; ATCC L. fermentum, 0.5 ppm, Inc Time 24): =
- bacterial growth in inhibition test (Lactobacillus fermentum; ATCC L. fermentum, 0.5 ppm, Inc Time 36): =
- bacterial growth in inhibition test (Lactobacillus fermentum; ATCC L. fermentum, 0.5 ppm, Inc Time 48): =
- bacterial growth in inhibition test (Lactobacillus fermentum; ATCC L. fermentum, 1 ppm, Inc Time 12): =
- bacterial growth in inhibition test (Lactobacillus fermentum; ATCC L. fermentum, 1 ppm, Inc Time 24): =
- bacterial growth in inhibition test (Lactobacillus fermentum; ATCC L. fermentum, 1 ppm, Inc Time 36): =
- bacterial growth in inhibition test (Lactobacillus fermentum; ATCC L. fermentum, 1 ppm, Inc Time 48): =
- bacterial growth in inhibition test (Lactobacillus fermentum; ATCC L. fermentum, 5 ppm, Inc Time 12): =
- bacterial growth in inhibition test (Lactobacillus fermentum; ATCC L. fermentum, 5 ppm, Inc Time 24): =
- bacterial growth in inhibition test (Lactobacillus fermentum; ATCC L. fermentum, 5 ppm, Inc Time 36): =
- bacterial growth in inhibition test (Lactobacillus fermentum; ATCC L. fermentum, 5 ppm, Inc Time 48): =
- bacterial growth in inhibition test (Lactobacillus fermentum; Ind 1 L. fermentum, 0.1 ppm, Inc Time 12): =
- bacterial growth in inhibition test (Lactobacillus fermentum; Ind 1 L. fermentum, 0.1 ppm, Inc Time 24): ±
- bacterial growth in inhibition test (Lactobacillus fermentum; Ind 1 L. fermentum, 0.1 ppm, Inc Time 36): ±
- bacterial growth in inhibition test (Lactobacillus fermentum; Ind 1 L. fermentum, 0.1 ppm, Inc Time 48): ±
- bacterial growth in inhibition test (Lactobacillus fermentum; Ind 1 L. fermentum, 0.3 ppm, Inc Time 12): =
- bacterial growth in inhibition test (Lactobacillus fermentum; Ind 1 L. fermentum, 0.3 ppm, Inc Time 24): =
- bacterial growth in inhibition test (Lactobacillus fermentum; Ind 1 L. fermentum, 0.3 ppm, Inc Time 36): =
- bacterial growth in inhibition test (Lactobacillus fermentum; Ind 1 L. fermentum, 0.3 ppm, Inc Time 48): ±
- bacterial growth in inhibition test (Lactobacillus fermentum; Ind 1 L. fermentum, 0.5 ppm, Inc Time 12): =
- bacterial growth in inhibition test (Lactobacillus fermentum; Ind 1 L. fermentum, 0.5 ppm, Inc Time 24): =
- bacterial growth in inhibition test (Lactobacillus fermentum; Ind 1 L. fermentum, 0.5 ppm, Inc Time 36): =
- bacterial growth in inhibition test (Lactobacillus fermentum; Ind 1 L. fermentum, 0.5 ppm, Inc Time 48): =
- bacterial growth in inhibition test (Lactobacillus fermentum; Ind 1 L. fermentum, 1.0 ppm, Inc Time 12): =
- bacterial growth in inhibition test (Lactobacillus fermentum; Ind 1 L. fermentum, 1.0 ppm, Inc Time 24): =
- bacterial growth in inhibition test (Lactobacillus fermentum; Ind 1 L. fermentum, 1.0 ppm, Inc Time 36): =
- bacterial growth in inhibition test (Lactobacillus fermentum; Ind 1 L. fermentum, 1.0 ppm, Inc Time 48): =
- bacterial growth in inhibition test (Lactobacillus fermentum; Ind 1 L. fermentum, 5.0 ppm, Inc Time 12): =
- bacterial growth in inhibition test (Lactobacillus fermentum; Ind 1 L. fermentum, 5.0 ppm, Inc Time 24): =
- bacterial growth in inhibition test (Lactobacillus fermentum; Ind 1 L. fermentum, 5.0 ppm, Inc Time 36): =
- bacterial growth in inhibition test (Lactobacillus fermentum; Ind 1 L. fermentum, 5.0 ppm, Inc Time 48): =
- bacterial growth in inhibition test (Lactobacillus brevis; Ind 1 L. brevis, 1 ppm, Inc Time 12): ±
- bacterial growth in inhibition test (Lactobacillus brevis; Ind 1 L. brevis, 1 ppm, Inc Time 24): +
- bacterial growth in inhibition test (Lactobacillus brevis; Ind 1 L. brevis, 1 ppm, Inc Time 36): +
- bacterial growth in inhibition test (Lactobacillus brevis; Ind 1 L. brevis, 1 ppm, Inc Time 48): +
- bacterial growth in inhibition test (Lactobacillus brevis; Ind 1 L. brevis, 2 ppm, Inc Time 12): ±
- bacterial growth in inhibition test (Lactobacillus brevis; Ind 1 L. brevis, 2 ppm, Inc Time 24): +
- bacterial growth in inhibition test (Lactobacillus brevis; Ind 1 L. brevis, 2 ppm, Inc Time 36): +
- bacterial growth in inhibition test (Lactobacillus brevis; Ind 1 L. brevis, 2 ppm, Inc Time 48): +
- bacterial growth in inhibition test (Lactobacillus brevis; Ind 1 L. brevis, 3 ppm, Inc Time 12): ±
- bacterial growth in inhibition test (Lactobacillus brevis; Ind 1 L. brevis, 3 ppm, Inc Time 24): +
- bacterial growth in inhibition test (Lactobacillus brevis; Ind 1 L. brevis, 3 ppm, Inc Time 36): +
- bacterial growth in inhibition test (Lactobacillus brevis; Ind 1 L. brevis, 3 ppm, Inc Time 48): +
- bacterial growth in inhibition test (Lactobacillus brevis; Ind 1 L. brevis, 4 ppm, Inc Time 12): ±
- bacterial growth in inhibition test (Lactobacillus brevis; Ind 1 L. brevis, 4 ppm, Inc Time 24): ±
- bacterial growth in inhibition test (Lactobacillus brevis; Ind 1 L. brevis, 4 ppm, Inc Time 36): +
- bacterial growth in inhibition test (Lactobacillus brevis; Ind 1 L. brevis, 4 ppm, Inc Time 48): +
- bacterial growth in inhibition test (Lactobacillus brevis; Ind 1 L. brevis, 5 ppm, Inc Time 12): =
- bacterial growth in inhibition test (Lactobacillus brevis; Ind 1 L. brevis, 5 ppm, Inc Time 24): =
- bacterial growth in inhibition test (Lactobacillus brevis; Ind 1 L. brevis, 5 ppm, Inc Time 36): ±
- bacterial growth in inhibition test (Lactobacillus brevis; Ind 1 L. brevis, 5 ppm, Inc Time 48): +
- bacterial growth in inhibition test (Lactobacillus brevis; Ind 43 L. brevis, 1 ppm, Inc Time 12): =
- bacterial growth in inhibition test (Lactobacillus brevis; Ind 43 L. brevis, 1 ppm, Inc Time 24): +
- bacterial growth in inhibition test (Lactobacillus brevis; Ind 43 L. brevis, 1 ppm, Inc Time 36): +
- bacterial growth in inhibition test (Lactobacillus brevis; Ind 43 L. brevis, 1 ppm, Inc Time 48): +
- bacterial growth in inhibition test (Lactobacillus brevis; Ind 43 L. brevis, 2 ppm, Inc Time 12): =
- bacterial growth in inhibition test (Lactobacillus brevis; Ind 43 L. brevis, 2 ppm, Inc Time 24): +
- bacterial growth in inhibition test (Lactobacillus brevis; Ind 43 L. brevis, 2 ppm, Inc Time 36): +
- bacterial growth in inhibition test (Lactobacillus brevis; Ind 43 L. brevis, 2 ppm, Inc Time 48): +
- bacterial growth in inhibition test (Lactobacillus brevis; Ind 43 L. brevis, 3 ppm, Inc Time 12): =
- bacterial growth in inhibition test (Lactobacillus brevis; Ind 43 L. brevis, 3 ppm, Inc Time 24): +
- bacterial growth in inhibition test (Lactobacillus brevis; Ind 43 L. brevis, 3 ppm, Inc Time 36): +
- bacterial growth in inhibition test (Lactobacillus brevis; Ind 43 L. brevis, 3 ppm, Inc Time 48): +
- bacterial growth in inhibition test (Lactobacillus brevis; Ind 43 L. brevis, 4 ppm, Inc Time 12): =
- bacterial growth in inhibition test (Lactobacillus brevis; Ind 43 L. brevis, 4 ppm, Inc Time 24): ±
- bacterial growth in inhibition test (Lactobacillus brevis; Ind 43 L. brevis, 4 ppm, Inc Time 36): +
- bacterial growth in inhibition test (Lactobacillus brevis; Ind 43 L. brevis, 4 ppm, Inc Time 48): +
- bacterial growth in inhibition test (Lactobacillus brevis; Ind 43 L. brevis, 5 ppm, Inc Time 12): =
- bacterial growth in inhibition test (Lactobacillus brevis; Ind 43 L. brevis, 5 ppm, Inc Time 24): ±
- bacterial growth in inhibition test (Lactobacillus brevis; Ind 43 L. brevis, 5 ppm, Inc Time 36): ±
- bacterial growth in inhibition test (Lactobacillus brevis; Ind 43 L. brevis, 5 ppm, Inc Time 48): +
- minimum inhibitory concentration (Lactobacillus brevis; industry isolated Lactobacillus brevis, ppm of the fermentation mixture): 1.0 ppm
